# Values quoted from earlier work as cited in patent US8471030B2, “Purification of montelukast using simulated moving bed” (Orochem Technologies Inc., priority 2010, dated 2013).
smiles,measurement,setting,value
CC(C)(O)c1ccccc1CC[C@@H](SCC1(CC(=O)O)CC1)c1cccc(/C=C/c2ccc3ccc(Cl)cc3n2)c1 [Montelukast],stability in acidic solutions,acidic solutions,degrade rapidly
same,stability in solution when exposed to light,"in solution, exposed to light, forms the Montelukast-cis isomer",unstable when exposed to light
